These results are taken from ChEMBL document CHEMBL5375972, “Discovery of Novel 2,3-Dihydro-1H-indene-5-sulfonamide NLRP3 Inflammasome Inhibitors Targeting Colon as a Potential Therapy for Colitis” (J Med Chem, 2023).

Activity calls are given as the source filed them. The rule behind the calls is not given here.

What all share (format): functional, organism-based
What all share (conditions): time 9.0 day

Experiment [1] has as its system Mus musculus. Kind of experiment: Anti-inflammatory activity in DSS-induced ulcerative colitis C57BL/6 mouse model assessed as increase in body weight at 10 mg/kg,ip administrated for 9 days.
For experiment [2], the system named is Mus musculus. Kind of experiment: Anti-inflammatory activity in DSS-induced ulcerative colitis C57BL/6 mouse model assessed as reduction in disease activity index (DAI) score at 10 mg/kg,ip administrated for 9 days.
Experiment [3] concerns Mus musculus. Kind of experiment: Anti-inflammatory activity in DSS-induced ulcerative colitis C57BL/6 mouse model assessed as increase in colon length at 10 mg/kg,ip administrated for 9 days.
Experiment [4] concerns Mus musculus. Kind of experiment: Anti-inflammatory activity in DSS-induced ulcerative colitis C57BL/6 mouse model assessed as reduction in histological colitis severity score at 10 mg/kg,ip administrated for 9 days.

Consider `CC(C)(O)c1coc(S(=O)(=O)NC(=O)Nc2c3c(cc4c2CCC4)CCC3)c1`, for which the result with Mus musculus [1], in the experiment on Mus musculus [2] and with Mus musculus [3] was Active. In addition, in the experiment with Mus musculus [4], the outcome was inactive.
